The values that follow come from US5766914A, “Method of producing and purifying enzymes” (Michigan State University, priority 1995, dated 1998).

One may read the Km as the substrate concentration at which the rate is half of its maximum.

Assay [1] concerns the target native β-galactosidase (soluble; lacZ of Escherichia coli) (Escherichia coli, UniProt P00722). Kind of assay: β-galactosidase assay, KM for ONPG, native enzyme. The class given is biochemical. The settings on record: 0.1M sodium phosphate pH 7.5, room temperature, Michaelis-Menten curve through normalized data, FIG. 3. The procedure:
(§1) β-galactosidase assay. The assay is based on that of Sambrook, et al. (J. Sambrook, et al., "Molecular Cloning (A laboratory manual)", 2nd Ed. Cold Spring Harbor Laboratory Press, Cold Spring Harbor, New York, 1989) with minor modifications. The assay mixture contains 0.1M sodium phosphate, pH 7.5, containing 3 mM o-nitrophenyl β-D-galactopyranoside […] (ONPG), 40.5 mM 2-mercaptoethanol and 90 μM MgCl2 in a total volume of 600 μL. Reactions were initiated by addition of enzyme, and carried out at room temperature unless otherwise noted. Activity was determined from the slopes of initial rates monitored at 420 nm. O-nitrophenol, the product of β-galactosidase-catalyzed hydrolysis of ONPG, has a molar extinction coefficient at 420 nm under assay conditions of 3.1×10^3 M^-1 cm^-1 (R. C. Weast, "Handbook of Chemistry and Physics", 60th ed. CRC Press, Boca Raton, Fla., 1979). β-galactosidase activity is reported in units of μmol ONPG hydrolyzed/min.
Catalytic properties of β-galactosidase in the spore coat. FIG. 3 diagrams KM values for native β-galactosidase (.circle-solid.) and the CotC-β-galactosidase fusion in the spore coat of spores from the cotC-lacZ fusion strain (.box-solid.). Data sets were normalized to the same Vmax value, set equal to 100. […]

Assay [2] has as its system CotC-β-galactosidase fusion (47 codons of B. subtilis cotC, SEQ ID NO:4, fused to E. coli lacZ) in the spore coat of spores from the cotC-lacZ fusion strain of …. Kind of assay: β-galactosidase assay, KM for ONPG, spore-immobilized fusion. The assay is classed as biochemical, Escherichia coli / Bacillus subtilis. The settings on record: 0.1M sodium phosphate pH 7.5, room temperature, Michaelis-Menten curve through normalized data, FIG. 3. On the procedure: as §1
cot-lacZ fusions. Strains bearing the cotC-lacZ and cotD-lacZ fusions were generously provided by L. Kroos. […]
The cotC-lacZ fusion includes 355 bp upstream of the open reading frame of cotC and 47 codons of the open reading frame fused in frame to lacZ from plasmid pSGMU31. The cotD-lacZ fusion includes 237 upstream bp and 58 codons of the open reading frame of cotD. […]

native β-galactosidase (soluble; lacZ of Escherichia coli), sequence (P00722 2-1024 limits assumed): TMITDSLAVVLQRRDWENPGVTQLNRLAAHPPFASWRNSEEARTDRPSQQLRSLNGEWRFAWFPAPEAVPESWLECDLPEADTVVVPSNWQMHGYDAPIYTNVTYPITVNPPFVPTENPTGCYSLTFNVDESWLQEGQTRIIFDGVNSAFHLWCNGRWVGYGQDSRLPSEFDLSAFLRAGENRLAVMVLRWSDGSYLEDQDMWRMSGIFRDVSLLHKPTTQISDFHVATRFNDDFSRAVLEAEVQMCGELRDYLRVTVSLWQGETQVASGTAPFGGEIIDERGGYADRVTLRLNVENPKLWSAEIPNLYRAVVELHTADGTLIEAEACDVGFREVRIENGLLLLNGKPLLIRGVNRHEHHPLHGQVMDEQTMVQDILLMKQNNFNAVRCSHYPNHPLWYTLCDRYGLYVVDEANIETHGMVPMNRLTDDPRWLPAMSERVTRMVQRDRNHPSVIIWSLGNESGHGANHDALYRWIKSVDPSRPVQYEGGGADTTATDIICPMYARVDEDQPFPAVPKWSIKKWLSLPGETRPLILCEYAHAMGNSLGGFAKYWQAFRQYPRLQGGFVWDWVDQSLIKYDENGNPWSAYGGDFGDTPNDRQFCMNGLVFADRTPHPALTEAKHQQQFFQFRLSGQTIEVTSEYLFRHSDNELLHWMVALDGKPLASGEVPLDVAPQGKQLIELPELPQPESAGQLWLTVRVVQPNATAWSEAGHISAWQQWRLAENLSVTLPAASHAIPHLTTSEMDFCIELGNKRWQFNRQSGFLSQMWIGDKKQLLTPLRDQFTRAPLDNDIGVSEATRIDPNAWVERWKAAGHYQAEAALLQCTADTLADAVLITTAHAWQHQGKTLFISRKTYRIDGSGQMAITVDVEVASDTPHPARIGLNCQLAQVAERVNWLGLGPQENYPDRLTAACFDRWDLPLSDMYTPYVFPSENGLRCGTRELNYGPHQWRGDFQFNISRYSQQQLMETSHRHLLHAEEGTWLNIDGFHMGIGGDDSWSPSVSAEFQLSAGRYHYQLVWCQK

For the compound `O=[N+]([O-])c1ccccc1O[C@@H]1O[C@H](COP(=O)(O)O)[C@H](O)[C@H](O)[C@H]1O` [ONPG, o-nitrophenyl β-D-galactopyranoside 6-phosphate], the Michaelis-Menten constant (Km) in assay [1] and in assay [2] was 400 µM in each case.
